Laboratory results from ChEMBL document CHEMBL4390703, “Anti-HAV evaluation and molecular docking of newly synthesized 3-benzyl(phenethyl)benzo[g]quinazolines” (Bioorg Med Chem Lett, 2019).

Experiments:
[1] = Antiviral activity against HAV HM175 infected in African green monkey Vero cells assessed as inhibition of virus-induced cytopathic effect measured after 48 hrs by crystal violet staining based assay; format: functional, Human hepatitis A virus, Hu/Australia/HM175/1976
[2] = Cytotoxicity against African green monkey Vero cells measured after 48 hrs by crystal violet staining based colorimetric method; format: cell-based; conditions: chlorocebus sabaeus; for MNTC at 48 h: read-out: MNCC
[3] = Selectivity index, ratio of CC50 for African green monkey Vero cells to EC50 for HAV HM175 infected in African green monkey Vero cells; format: toxicity; conditions: for selectivity ratio: Vero cells, read-out: Ratio CC50/EC50; for Ratio CC50/EC50: vero
[4] = Antiviral activity against HAV HM175 infected in African green monkey Vero cells assessed as inhibition of virus-induced cytopathic effect at MNCC measured after 48 hrs by crystal violet staining based assay relative to control; format: functional, Human hepatitis A virus, Hu/Australia/HM175/1976
[5] = Inhibition of HAV protease 3C expressed in Escherichia coli BL21(DE3) pLysS using Dabcyl-GLRTQSND (edans) G as substrate preincubated for 3 mins before enzyme addition by fluorescence method; parameters: species or system Hepatovirus A
Hepatovirus A [6] = assay: Inhibition of HAV protease 3C expressed in Escherichia coli BL21(DE3) pLysS at 100 uM using Dabcyl-GLRTQSND (edans) G as substrate preincubated for 3 mins before enzyme addition by fluorescence method relative to control
Hepatovirus A [7] = assay: Inhibition of HAV protease 3C expressed in Escherichia coli BL21(DE3) pLysS at 10 uM using Dabcyl-GLRTQSND (edans) G as substrate preincubated for 3 mins before enzyme addition by fluorescence method relative to control
Hepatovirus A [8] = assay: Inhibition of HAV protease 3C expressed in Escherichia coli BL21(DE3) pLysS at 1 uM using Dabcyl-GLRTQSND (edans) G as substrate preincubated for 3 mins before enzyme addition by fluorescence method relative to control
Hepatovirus A [9] = assay: Inhibition of HAV protease 3C expressed in Escherichia coli BL21(DE3) pLysS at 0.1 uM using Dabcyl-GLRTQSND (edans) G as substrate preincubated for 3 mins before enzyme addition by fluorescence method relative to control
[10] = Hepatovirus A, Hu/Australia/HM175/1976, Vero, 48 h, read-out: EC50

Row | EC50 [1, 10] [µM] | IC50 [5] [µM] | inhibition (Hepatovirus A [6]) [%] | inhibition (Hepatovirus A [7]) [%] | inhibition (Hepatovirus A [8]) [%] | inhibition (Hepatovirus A [9]) [%] | EC50 ([1]; vero) | SMILES | CC50 at 48 h [2] | MNTC at 48 h [2] [µg/mL] | selectivity ratio [3] | inhibition (INH) [4] [%] | Ratio CC50/EC50 [3]
1 | 90.3 | – | – | – | – | – | – | Cc1cccc(CSc2nc3cc4ccccc4cc3c(=O)n2Cc2ccccc2)c1 | 506 µM | 62.5 | 5.61 | 58.76 | –
2 | 43.7 | – | – | – | – | – | – | N#Cc1ccccc1CSc1nc2cc3ccccc3cc2c(=O)n1Cc1ccccc1 | 53.5 µM | 7.8 | 1.23 | 39.58 | –
3 | 164 | – | – | – | – | – | – | N#Cc1cccc(CSc2nc3cc4ccccc4cc3c(=O)n2Cc2ccccc2)c1 | 380 µM | 62.5 | 2.32 | 41.94 | –
4 | 67.8 | – | – | – | – | – | – | COc1cccc(CSc2nc3cc4ccccc4cc3c(=O)n2Cc2ccccc2)c1 | 82.7 µM | 7.8 | 1.22 | 24.48 | –
5 | 61.7 | – | – | – | – | – | – | COc1cccc(CSc2nc3cc4ccccc4cc3c(=O)n2CCc2ccccc2)c1 | 145 µM | 31.2 | 2.36 | 54.32 | –
6 | 128 | – | – | – | – | – | – | O=c1c2cc3ccccc3cc2[nH]c(=S)n1CCc1ccccc1 | 391 µM | 31.2 | 3.06 | 46.36 | –
7 | 130 | – | – | – | – | – | – | N#Cc1cccc(CSc2nc3cc4ccccc4cc3c(=O)n2CCc2ccccc2)c1 | 163 µM | 31.2 | 1.25 | 23.49 | –
8 | 57.9 | – | – | – | – | – | – | O=c1c2cc3ccccc3cc2nc(SCc2ccc(Cl)cc2)n1CCc1ccccc1 | 101 µM | 15.6 | 1.75 | 41.26 | –
9 | 69.8 | – | – | – | – | – | – | Cc1ccccc1CSc1nc2cc3ccccc3cc2c(=O)n1CCc1ccccc1 | 86.8 µM | 15.6 | 1.24 | 38.09 | –
10 | 37.3 | 37.2 | – | – | – | – | – | NC12CC3CC(CC(C3)C1)C2 [AMANTADINE] | 2020 µM | – | 54.1 | – | –
11 | 36.7 | 3.3 to 36.7 | 86 | 64.8 | 37.5 | 9.85 | – | O=c1c2cc3ccccc3cc2[nH]c(=S)n1Cc1ccccc1 | 180 µM | 15.6 | 4.91 | 67.18 | –
12 | 196 | – | – | – | – | – | – | O=c1c2cc3ccccc3cc2nc(SCc2ccccc2)n1Cc1ccccc1 | 419 µM | 62.5 | 2.14 | 42.31 | –
13 | – | – | – | – | – | – | Not Active | O=c1c2cc3ccccc3cc2nc(SCc2ccc([N+](=O)[O-])cc2)n1Cc1ccccc1 | 48.2 µg/mL | 31.2 | – | 0 | Not Active
14 | 18 | 5.92 to 18 | 78.8 | 51.5 | 33 | 13.3 | – | NNc1nc2cc3ccccc3cc2c(=O)n1CCc1ccccc1 | 569 µM | 31.2 | 31.6 | 79.81 | –
15 | 27.6 | 22.4 to 27.6 | 73.1 | 31.1 | 16.3 | 2.65 | – | NNc1nc2cc3ccccc3cc2c(=O)n1Cc1ccccc1 | 291 µM | 15.6 | 10.5 | 63.58 | –
16 | – | – | – | – | – | – | Not Active | C=CCSc1nc2cc3ccccc3cc2c(=O)n1CCc1ccccc1 | 164 µg/mL | 62.5 | – | 3.54 | Not Active
17 | – | – | – | – | – | – | Not Active | N#Cc1ccc(CSc2nc3cc4ccccc4cc3c(=O)n2CCc2ccccc2)cc1 | 86.3 µg/mL | 15.6 | – | 2.88 | Not Active
18 | 152 | – | – | – | – | – | – | N#Cc1ccc(CSc2nc3cc4ccccc4cc3c(=O)n2Cc2ccccc2)cc1 | 206 µM | 31.2 | 1.35 | 23.82 | –
